The text below walks through data of patent US20180177706A1, “COMPOSITIONS CONTAINING HYALURONIC ACID AND SYNERGISTIC ANTI-HYALURONIDASE ACTIVES” (L'OREAL, priority 2016, published 2018).

Each structure is given as a SMILES string.

Data set [1] can be described thus: solubility / formulation observation. In kind it is physicochemical.
Data set [2] has as its system HAase. To be noted: stated as known; cited from earlier work.
The next data set deals with hyaluronidase (HAase). Nature of the data set: in vitro dose screening assay of HAase inhibitors. Format: biochemical. On the procedure: Antioxidants having known hyaluronidase inhibition properties were tested in vitro to establish baseline inhibition. Referring now to the drawings, selected results are shown in the table of FIG. 1, with the known HAase inhibitor Apigenin as a positive control.

Data set [3] concerns HAase. The data set can be described thus: HA gel model of HAase inhibition-based kinetic viscoelastic profile measurement. Format: biochemical. On the procedure:
Hyaluronidase inhibition activity was evaluated in a HA gel model of HAase inhibition-based kinetic viscoelastic profile measurement. According to the experimental design, various individual controls and known HAase inhibitors were tested (alone and in combination). In this model, HAase was introduced into a gel composed of HA. Upon exposure, the HAase decomposes the HA gel in a time dependent manner which is directly correlated to the viscosity of the HA gel. Test compounds were introduced to the HA gel system and degree of HAase inhibition as gauged by measuring viscosity (change in viscosity) over time.
At each time point, % of Viscosity Loss is compared to the viscosity of HA gel without enzyme.
To describe the synergy clearly, the “inhibition factor,” below, reflects the extent of inhibition of HAase activity, where n=viscosity: […]

Turning to `O=C(OC[C@H]1O[C@@H](OC(=O)c2cc(O)c(O)c(OC(=O)c3cc(O)c(O)c(O)c3)c2)[C@H](OC(=O)c2cc(O)c(O)c(OC(=O)c3cc(O)c(O)c(O)c3)c2)[C@@H](OC(=O)c2cc(O)c(O)c(OC(=O)c3cc(O)c(O)c(O)c3)c2)[C@@H]1OC(=O)c1cc(O)c(O)c(OC(=O)c2cc(O)c(O)c(O)c2)c1)c1cc(O)c(O)c(OC(=O)c2cc(O)c(O)c(O)c2)c1` [tannic acid], the “solubility (in words)” value in data set [1] is on record as “highly insoluble”. Further, the “inhibition of HAase (known)” value in the data set on HAase [2] is “super-efficient inhibitor”. Also, the “inhibition of HAase (in words)” value with hyaluronidase (HAase) (in vitro assay) is listed as “very potent inhibitor”.
As to `CC1(C)[C@@H](O[C@H]2O[C@H](C(=O)[O-])[C@@H](O)[C@H](O)[C@H]2O[C@@H]2O[C@H](C(=O)[O-])[C@@H](O)[C@H](O)[C@H]2O)CC[C@]2(C)[C@H]3C(=O)C=C4[C@@H]5C[C@@](C)(C(=O)O)CC[C@]5(C)CC[C@@]4(C)[C@]3(C)CC[C@@H]12.[K+].[K+]` [dipotassium glycyrrhizate], the “inhibition of hyaluronidase in gel model (in words)” value with HAase [3] was “very mild effect”. In the data set on hyaluronidase (HAase) (concentration of 0.05 mg/mL), the “inhibition of HAase (in words)” value is “mild inhibitors”. The “dose effect on HAase inhibition” value with hyaluronidase (HAase) (up to testing dose of 0.5 mg/ml) is listed as “no clear dose effect”.
